Laboratory results as given in publication PMC10914731, “Homo-BacPROTAC-induced degradation of ClpC1 as a strategy against drug-resistant mycobacteria” (Nature Communications, 2024).
Converted amounts (≈) assume the structure as drawn. “And” between values parts separate entries of the source, which are not always exact repeats. Equal entries are not always repeated. Where two headings read alike, the source gives them in different places.

Assays:
[1] = test system: non-replicating cells of Mtb H37Rv; assay type: cell-based, Mycobacterium tuberculosis
[2] = test system: Mycobacterium fortuitum; assay: microbe, parasite or virus in culture; assay type: cell-based
[3] = test system: Mtb # 8673; assay: microbe, parasite or virus in culture; assay type: cell-based
[4] = test system: Mtb ATCC 35825; assay: microbe, parasite or virus in culture; assay type: cell-based
[5] = test system: Mtb (moxR) FNDR-M1; assay: microbe, parasite or virus in culture; assay type: cell-based
[6] = test system: Msm 607; assay: microbe, parasite or virus in culture; assay type: cell-based
[7] = test system: Mycobacterium intracellulare; assay: microbe, parasite or virus in culture; assay type: cell-based; details: Mycobacterium intracellulare; mean ± SD; read-out: MIC Mycobacterium intracellulare
[8] = test system: Mtb (katG del) ATCC 35822; assay: microbe, parasite or virus in culture; assay type: cell-based; details: Mycobacterium tuberculosis
[9] = test system: Mycobacterium abscessus; assay: microbe, parasite or virus in culture; assay type: cell-based
[10] = test system: Mycobacterium avium; assay: microbe, parasite or virus in culture; assay type: cell-based
[11] = test system: Mtb # 11291; assay: microbe, parasite or virus in culture; assay type: cell-based; details: for MIC: read-out: MIC Mtb # 11291
[12] = test system: M. tuberculosis H37Rv (ATCC 27294); assay: microbe, parasite or virus in culture; assay type: cell-based; details: Mycobacterium tuberculosis
[13] = test system: Mtb H37Rv in THP-1 macrophages; assay: Intracellular MIC assay in THP-1 macrophages; assay type: cell-based, Mycobacterium tuberculosis; details: H37RV, 19.44 µM
[14] = Experiment 2, three replicate columns
[15] = Mycobacterium tuberculosis, mean, n = 2 well replicates
[16] = Mycobacterium tuberculosis, single well replicates

SMILES: CO[C@H]1/C=C/O[C@@]2(C)Oc3c(C)c(O)c4c(O)c(c(/C=N/N5CCN(C)CC5)c(O)c4c3C2=O)NC(=O)/C(C)=C\C=C\[C@H](C)[C@H](O)[C@@H](C)[C@@H](O)[C@@H](C)[C@H](OC(C)=O)[C@@H]1C [Rifampicin, reference compound]
- inhibitory activity on non-growing Mtb H37Rv [1]: retained a partial inhibitory activity
- MIC (µg/ml) Mycobacterium fortuitum [2, 14]: 1 µg/mL (≈ 1.22 µM)
- MIC ([2]; Experiment 2, three replicate columns, read-out: MIC (µM) Mycobacterium fortuitum): 1.22 µM
- MIC ([2]; Mycolicibacterium fortuitum, Experiment 2, three replicate columns, read-out: MIC (µM) Mycobacterium fortuitum): 1.22 µM
- MIC ([2]; Mycolicibacterium fortuitum, Experiment 2, three replicate columns, read-out: MIC (µg/ml) Mycobacterium fortuitum): 1 µg/mL
- MIC ([2]; Mycolicibacterium fortuitum, mean ± SD, read-out: MIC Mycobacterium fortuitum): 1.2 µM
- MIC [3, 15]: 38.9 µM and 32 µg/mL
- MIC [3, 16]: 38.9 µM and 32 µg/mL
- MIC ([3]; single well replicates): 38.88 µM (≈ 32000 ng/mL)
- MIC Mtb # 8673 ([3]; single well replicates): 32 µg/mL (≈ 38.9 µM)
- MIC ([4]; Mycobacterium tuberculosis, ATCC35825, mean, n = 2 well replicates): 0.005 µM and 0.004 µg/mL
- MIC ([4]; Mycobacterium tuberculosis, ATCC35825, single well replicates): 0.004 µg/mL and 0.005 µM
- MIC ([4]; single well replicates): 0.005 µM (≈ 4.11 ng/mL)
- MIC Mtb ATCC 35825 ([4]; single well replicates): 0.004 µg/mL (≈ 0.00486 µM)
- MIC ([5]; M. tuberculosis FNDR-M1, single well replicates): 0.019 µM and 0.00949 µM (2×)
- MIC ([5]; Mycobacterium tuberculosis, Mtb (moxR) FNDR-M1, mean ± SD, n = 3 well replicates): 0.01 µM (≈ 8.23 ng/mL)
- MIC ([6]; Mycolicibacterium smegmatis, 607, read-out: MIC Msm #607, individual example (Supplementary Table 11)): 9.7 µM and 8 µg/mL
- MIC ([6]; Mycolicibacterium smegmatis, ATCC607, Set-3, done at a different day than Set 1 and Set 2, read-out: MIC (Msm ATCC607) Set-3): 9.72 µM and 8 µg/mL
- MIC ([6]; Mycolicibacterium smegmatis, ATCC607, mean of 3 experiments ± SD, read-out: MIC including standard deviations (Msm ATCC607)): 13 µM and 10.6 µg/mL
- MIC ([6]; Mycolicibacterium smegmatis, ATCC607, read-out: MIC (Msm ATCC607) Set-1): 9.72 µM and 8 µg/mL
- MIC ([6]; Mycolicibacterium smegmatis, ATCC607, read-out: MIC (Msm ATCC607) Set-2): 19.4 µM and 16 µg/mL
- MIC [7]: 0.2 µM (≈ 165 ng/mL)
- MIC ([8]; ATCC35822, M. tuberculosis ATCC 35822, single well replicates): 0.00949 µM (≈ 7.81 ng/mL)
- MIC ([8]; ATCC35822, Mtb (katG del) ATCC 35822, mean ± SD, n = 3 well replicates): 0.01 µM (≈ 8.23 ng/mL)
- MIC (µg/ml) Mycobacterium abscessus [9, 14]: 8 µg/mL (≈ 9.72 µM)
- MIC ([9]; Experiment 2, three replicate columns, read-out: MIC (µM) Mycobacterium abscessus): 9.72 µM
- MIC ([9]; Mycobacteroides abscessus, Experiment 2, three replicate columns, read-out: MIC (µM) Mycobacterium abscessus): 9.72 µM
- MIC ([9]; Mycobacteroides abscessus, Experiment 2, three replicate columns, read-out: MIC (µg/ml) Mycobacterium abscessus): 8 µg/mL
- MIC ([9]; Mycobacteroides abscessus, mean ± SD, read-out: MIC Mycobacterium abscessus): 9.7 µM
- MIC (µg/ml) Mycobacterium avium [10, 14]: 0.25 µg/mL (≈ 0.304 µM)
- MIC ([10]; Experiment 2, three replicate columns, read-out: MIC (µM) Mycobacterium avium): 0.30 µM
- MIC ([10]; Mycobacterium avium, Experiment 2, three replicate columns, read-out: MIC (µM) Mycobacterium avium): 0.3 µM
- MIC ([10]; Mycobacterium avium, Experiment 2, three replicate columns, read-out: MIC (µg/ml) Mycobacterium avium): 0.25 µg/mL
- MIC ([10]; Mycobacterium avium, mean ± SD, read-out: MIC Mycobacterium avium): 0.3 µM
- MIC [11, 15]: 0.005 µM and 0.004 µg/mL
- MIC [11, 16]: 0.005 µM and 0.004 µg/mL
- MIC Mtb # 11291 ([11]; single well replicates): 0.004 µg/mL (≈ 0.00486 µM)
- MIC ([11]; single well replicates): 0.005 µM (≈ 4.11 ng/mL)
- MIC ([12]; M. tuberculosis H37Rv 27294, single well replicates, read-out: MIC): 0.00949 µM (≈ 7.81 ng/mL)
- MIC ([12]; Mtb H37Rv, mean ± SD, n = 3 well replicates, read-out: MIC): 0.01 µM (≈ 8.23 ng/mL)
- MIC ([12]; Set 1, read-out: MIC (Mtb H37Rv) Set 1): 0.00948 µM and 0.0078 µg/mL
- MIC ([12]; Set 2, read-out: MIC (Mtb H37Rv) Set 2): 0.00948 µM and 0.0078 µg/mL
- MIC ([12]; Set 3, done at a different day than Set 1 and Set 2, read-out: MIC (Mtb H37Rv) Set 3): 0.00948 µM and 0.0078 µg/mL
- MIC ([12]; individual example (Supplementary Table 11), read-out: MIC Mtb H37Rv): 0.01 µM and 0.01 µg/mL
- MIC ([12]; mean of 3 experiments +/- SD, unit taken from the sets above in the same table, read-out: MIC data (Mtb H37Rv) (+/- SD)): 0.009 µM and 0.0078 µg/mL
- intracellular viable mycobacteria ([13]; 96 h): 4.26 log10 cfu/ml
- intracellular viable mycobacteria ([13]; 168 h): 3.56 log10 cfu/ml
